Consider 53 compounds from the supplement of paper PMC12317010.

A short description of the data set: collision cross section in nitrogen (drift tube, single-field); higher = larger gas-phase ion size.
Where [1] appears, read: ion type: [M+Na], ion source: ESI, ion mode: Positive.
[2] abbreviates: ion type: [M-H], ion source: ESI, ion mode: Negative.
Setting [3] is: ion type: [M+H], ion source: ESI, ion mode: Positive.
Where [4] appears, read: ion type: [M+H], ion source: APCI, ion mode: Positive.
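Also: chemical standards at 10 µM analysed by drift tube IMS-QTOF MS in about 3.95 torr nitrogen, mean of duplicate injections differing ≤1%, mass error below 10 ppm.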

Consider `CCCCCOC(=O)COc1cc(N2C(=O)C3=C(CCCC3)C2=O)c(F)cc1Cl` [Flumiclorac-pentyl], for which the “collision cross section in nitrogen” value under setting [1] was 209.5 Å² and the “collision cross section in nitrogen” value under setting [2] was found to be 196.2 Å².

Consider `COc1ccccc1OCC(O)CO` (stereo unspecified) [Guaifenesin], for which, under setting [1], the “collision cross section in nitrogen” value worked out at 147.2 Å².

As for `O=S(=O)(O)c1cc(Cl)c(Cl)cc1Cl` [2,4,5-Trichlorobenzenesulfonic acid], the “collision cross section in nitrogen” value under setting [2] stood at 142.8 Å².

For `NNc1nc(-c2ccc(N)cc2)cs1` [2-Hydrazino-4-(4-aminophenyl) thiazole], the “collision cross section in nitrogen” value under setting [3] turned out to be 146.2 Å².

Consider `CC(C)C(C(=O)OC(C#N)c1cccc(Oc2ccccc2)c1)c1ccc(OC(F)F)cc1` (stereo unspecified) [Flucythrinate], for which the “collision cross section in nitrogen” value by setting is: under setting [4], 214.8 Å²; under setting [1], 208.3 Å².

Consider `CN(C)c1nc(=O)n(C2CCCCC2)c(=O)n1C` [Hexazinone], for which the “collision cross section in nitrogen” value turned out to be 163 Å² under setting [4], 162.8 Å² under setting [3] and 176.3 Å² under setting [1].

As to `O=c1cc(-c2ccccc2)oc2ccc3ccccc3c12` [5,6-Benzoflavone], the “collision cross section in nitrogen” value is, setting by setting: under setting [4], 160.8 Å²; under setting [3], 160.2 Å²; under setting [1], 181.8 Å².

Regarding `CCCCCCCCCCCCN` [1-Dodecanamine], the “collision cross section in nitrogen” value under setting [3] was determined as 164 Å².

For `O=c1c(-c2ccc(O)cc2)coc2cc(O)cc(O)c12` [Genistein], the “collision cross section in nitrogen” value under setting [4] stood at 160.3 Å², the “collision cross section in nitrogen” value under setting [3] is given as 160.3 Å², the “collision cross section in nitrogen” value under setting [1] is reported as 171.3 Å² and the “collision cross section in nitrogen” value under setting [2] is listed as 161.6 Å².

`CCOC(=O)C1=NN(c2ccccc2)C(=O)C1` [Ethyl 5-oxo-1-phenyl-4,5-dihydro-1H-pyrazole-3-carboxylate]: the “collision cross section in nitrogen” value is reported as 154.1 Å² under setting [4], 154.5 Å² under setting [3], 164.9 Å² under setting [1] and 155.5 Å² under setting [2].

For the compound `CCCCn1cc[n+](C)c1` [1-Butyl-3-methylimidazolium chloride], the “collision cross section in nitrogen” value reads like this: (ion source: APCI, ion mode: Positive, ion type: [M]+ (permanent cation)) 129 Å²; (ion source: ESI, ion mode: Positive, ion type: [M]+ (permanent cation)) 128.9 Å².

`CC(C)(C)c1csc(-c2cc3cc(OCc4ccccc4CC(=O)O)ccc3o2)n1`: the “collision cross section in nitrogen” value is recorded as 211.8 Å² under setting [4], 211.5 Å² under setting [3] and 203.4 Å² under setting [1].

For `CC1(C)[C@@H](O[C@H]2O[C@H](C(=O)O)[C@@H](O)[C@H](O)[C@H]2O[C@@H]2O[C@H](C(=O)O)[C@@H](O)[C@H](O)[C@H]2O)CC[C@]2(C)[C@H]3C(=O)C=C4[C@@H]5C[C@@](C)(C(=O)O)CC[C@]5(C)CC[C@@]4(C)[C@]3(C)CC[C@@H]12` [Ammonium glycyrrhizinate trihydrate], the “collision cross section in nitrogen” value reads like this: under setting [3], 286.8 Å²; under setting [1], 294.4 Å²; under setting [2], 282.6 Å².

As for `O=P(O)(Oc1ccccc1)Oc1ccccc1` [Diphenyl phosphate], the “collision cross section in nitrogen” value reads like this: under setting [3], 156.5 Å²; under setting [2], 153.6 Å².

For `Nc1c(S(=O)(=O)O)cc(Nc2ccccc2)c2c1C(=O)c1ccccc1C2=O` [Acid Blue 25], the “collision cross section in nitrogen” value is 190.2 Å² under setting [3] and 191.1 Å² under setting [2].

`CCCCOCCOC(=O)COc1cc(Cl)c(Cl)cc1Cl` [2,4,5-T-butotyl]: the “collision cross section in nitrogen” value under setting [1] is recorded as 184.2 Å².

With `Nc1cc([N+](=O)[O-])ccc1C(=O)O` [4-Nitroanthranilic acid], the “collision cross section in nitrogen” value under setting [2] is 133.5 Å².

Take `C=C(C)C(=O)OCCOC1CC2CC1C1C=CCC21` (stereo unspecified) [(Dicyclopentadienyloxy)ethyl methacrylate]: the “collision cross section in nitrogen” value under setting [1] stood at 170.7 Å².

As for `N=C(N)c1ccc(OCCCCCOc2ccc(C(=N)N)cc2)cc1` [Pentamidine isethionate], the “collision cross section in nitrogen” value came to 177.4 Å² under setting [3] and 183.2 Å² under setting [1].

Consider `O=S(=O)(O)C(F)(F)C(F)(F)C(F)(F)C(F)(F)F` [Potassium perfluorobutanesulfonate], for which the “collision cross section in nitrogen” value under setting [2] is 134.2 Å².

On to `O=C(O)c1c(Cl)ccc2cc(Cl)cnc12` [Quinclorac], for which the “collision cross section in nitrogen” value under setting [3] is 142.6 Å².

Turning to `CCCCC(CC)COP(=O)(O)O` (stereo unspecified) [2-Ethylhexyl dihydrogen phosphate], the “collision cross section in nitrogen” value under setting [2] was determined as 150.7 Å².

As for `CCNc1nc(N)nc(Cl)n1` [Deisopropylatrazine], the “collision cross section in nitrogen” value is, setting by setting: under setting [4], 133.5 Å²; under setting [3], 133.7 Å².

With `Nc1c(Cl)cc(Cl)cc1[N+](=O)[O-]` [2,4-Dichloro-6-nitroaniline], the “collision cross section in nitrogen” value under setting [2] was found to be 131.4 Å².

With `CCCCCCCCCCCCN1CCCCCC1=O` [Laurocapram], the “collision cross section in nitrogen” value is, setting by setting: under setting [4], 185.5 Å²; under setting [3], 184.7 Å²; under setting [1], 185.4 Å².

Regarding `Nc1ccc2c(c1)C(=O)c1ccccc1C2=O` [2-Aminoanthraquinone], under setting [2], the “collision cross section in nitrogen” value is on record as 144.9 Å².

For the compound `CC(=O)Nc1c(I)c(NC(C)=O)c(I)c(C(=O)O)c1I` [Diatrizoate sodium], the “collision cross section in nitrogen” value under setting [3] was 175.5 Å² and the “collision cross section in nitrogen” value under setting [1] was 179.4 Å².

Take `O=C1CC2(CCCC2)CC(=O)N1CCCCN1CCN(c2ncccn2)CC1` [Buspirone]: the “collision cross section in nitrogen” value is, setting by setting: under setting [4], 199.2 Å²; under setting [3], 199.2 Å²; under setting [1], 201.6 Å²; (ion type: [M+], ion source: APCI, ion mode: Positive) 196.8 Å²; under setting [2], 202.9 Å².

Regarding `CN(C)CCOCCN(C)CCO` [2-[{2-[2-(Dimethylamino)ethoxy]ethyl}(methyl)amino]ethanol], the “collision cross section in nitrogen” value runs as follows: under setting [4], 138.5 Å²; under setting [3], 138.3 Å²; under setting [1], 144 Å².

Consider `O=C(O)C(F)(F)C(F)(F)C(F)(F)C(F)(F)C(F)(F)C(F)(F)C(F)(F)C(F)(F)C(F)(F)C(F)(F)F` [Perfluoroundecanoic acid], for which the “collision cross section in nitrogen” value under setting [2] was 183.9 Å².

With `O=C(NCNC(=O)NC1C(=O)NC(=O)N1CO)NC1C(=O)NC(=O)N1CO` (stereo unspecified) [Imidazolidinyl urea], the “collision cross section in nitrogen” value under setting [1] is reported as 183.4 Å².

Regarding `c1ccc(CNc2[nH]cnc3ncnc2-3)cc1` [N-Benzyl-1H-purin-6-amine], the “collision cross section in nitrogen” value is, setting by setting: under setting [4], 148.7 Å²; under setting [3], 148.3 Å²; under setting [1], 162.8 Å²; under setting [2], 154.5 Å².

As for `N#CCCN(CCO)c1ccccc1` [N-Cyanoethyl-hydroxyethyl aniline], the “collision cross section in nitrogen” value under setting [3] stood at 142.8 Å².

Take `Cc1nnc(-c2ccccc2)c(=O)n1N` [Metamitron]: the “collision cross section in nitrogen” value runs as follows: under setting [4], 144.9 Å²; under setting [3], 145.2 Å².

As for `N=C1NC(=N)c2ccccc21` [1H-Isoindole-1,3(2H)-diimine], the “collision cross section in nitrogen” value under setting [3] turned out to be 126.4 Å².

Take `CC1=NN(c2ccc(C(=O)O)cc2)C(=O)C1` [4-(3-Methyl-5-oxo-4,5-dihydro-1H-pyrazol-1-yl)benzoic acid]: the “collision cross section in nitrogen” value reads like this: under setting [3], 151.6 Å²; under setting [2], 146.2 Å².

For the compound `CN(C)C(=O)Nc1cccc(OC(=O)NC(C)(C)C)c1`, under setting [1], the “collision cross section in nitrogen” value is given as 175 Å².

As to `Cc1nccn1-c1ccc(Sc2cccc(C3(C(N)=O)CCOCC3)c2)cc1`, the “collision cross section in nitrogen” value was determined as 196.7 Å² under setting [4], 196.8 Å² under setting [3] and 188.1 Å² under setting [1].

For the compound `CCOP(=O)(CCP(=O)(OCC)OCC)OCC` [Tetraethyl ethylenebisphosphonate], the “collision cross section in nitrogen” value under setting [3] was found to be 161.1 Å² and the “collision cross section in nitrogen” value under setting [1] is listed as 172.3 Å².

As for `COP(=O)(OC)SCn1c(=O)oc2cc(Cl)cnc21` [Azamethiphos], the “collision cross section in nitrogen” value is, setting by setting: under setting [4], 160.6 Å²; under setting [3], 161.5 Å²; under setting [1], 171.2 Å².

Turning to `COCCOCCOCCOC` [Triethylene glycol dimethyl ether], the “collision cross section in nitrogen” value under setting [1] amounted to 138.1 Å².

Turning to `O=C(OCCOCCOCCOC(=O)c1ccccc1)c1ccccc1` [Ethylenebis(oxyethylene) dibenzoate], under setting [1], the “collision cross section in nitrogen” value was determined as 189.7 Å².

Regarding `CC(C)(C)c1cc(CCC(=O)NN)cc(C(C)(C)C)c1O` [3-[3,5-DI(tert-butyl)-4-hydroxyphenyl]propanohydrazide], the “collision cross section in nitrogen” value is on record as 179.3 Å² under setting [1] and 174.5 Å² under setting [2].

For the compound `CC1=NN(c2cccc(S(=O)(=O)O)c2)C(=O)C1`, the “collision cross section in nitrogen” value is listed as 161.7 Å² under setting [3], 161.9 Å² under setting [1] and 156.5 Å² under setting [2].

Take `Cc1cc2c3c(c1)C(c1ccccc1)=N[C@@H](NC(=O)c1ccncc1)C(=O)N3CC2` [CI-1018]: the “collision cross section in nitrogen” value under setting [4] worked out at 201.9 Å², the “collision cross section in nitrogen” value under setting [3] stood at 200.9 Å², the “collision cross section in nitrogen” value under setting [1] is recorded as 210.1 Å² and the “collision cross section in nitrogen” value under setting [2] was determined as 195 Å².

Regarding `CCOc1cc(C=O)ccc1O` [3-Ethoxy-4-hydroxybenzaldehyde], under setting [2], the “collision cross section in nitrogen” value turned out to be 133.6 Å².

With `O=C(O)c1cn(-c2ccc(F)cc2)c2cc(N3CCNCC3)c(F)cc2c1=O` [Sarafloxacin], the “collision cross section in nitrogen” value amounted to 188.2 Å² under setting [4], 188.3 Å² under setting [3] and 204.8 Å² under setting [1].

For `CCCCOC(=O)COC(=O)c1ccccc1C(=O)OCCCC`, the “collision cross section in nitrogen” value under setting [1] stood at 193.5 Å².

With `CCOP(=S)(OCC)Oc1cc(C)nc(N(CC)CC)n1` [Pirimiphos-ethyl], the “collision cross section in nitrogen” value by setting is: under setting [4], 176.3 Å²; under setting [3], 178.3 Å²; under setting [1], 181.5 Å².

`Nc1cnn(-c2ccccc2)c(=O)c1Cl` [Chloridazon]: the “collision cross section in nitrogen” value under setting [4] was determined as 143.6 Å², the “collision cross section in nitrogen” value under setting [3] turned out to be 144 Å², the “collision cross section in nitrogen” value under setting [1] stood at 158 Å² and the “collision cross section in nitrogen” value under setting [2] is recorded as 143.7 Å².

As to `CCCCCCCCCCCCCCCC(=O)O` [Hexadecanoic acid], the “collision cross section in nitrogen” value under setting [2] is 169.2 Å².

Consider `CCCCCCCCC(=O)NCc1ccc(O)c(OC)c1` [N-Vanillylnonanamide], for which the “collision cross section in nitrogen” value under setting [1] was determined as 178 Å².

As for `CCOC(=O)CC(SP(=S)(OC)OC)C(=O)OCC` (stereo unspecified) [Malathion], the “collision cross section in nitrogen” value under setting [1] is 172.2 Å².
